Assay results reported in patent publication US7125559B2, “Cosmetic or dermatological composition comprising a combination of an elastase inhibitor of the N-acylaminoamide family and at least one myorelaxing agent” (L'Oreal, priority 2001, dated 2006).

Experiments:
[1] = test system: surviving human skins treated with human leukocyte elastase (HLE); test: ex vivo activity on human skin fragments kept in survival 10 days with HLE, morphometry of elastin fibres (Example 5); conditions: three donors, mean; HLE 0.5 μg/ml + 5 μl compound at 0.2% in ethanol every two days, 10 days at 37° C.; HLE alone 5.1%, untreated 7.4%
Protocol: (§1) The ex vivo activity of the compound of Example 2 was evaluated on surviving human skins treated with human leukocyte elastase (HLE).
(§2) The test was performed in the following manner:
(§3) Fragments of normal human skin derived from three different donors are deposited in inserts placed in culture wells. Culture medium supplemented with antibiotics is added to the bottom of the wells. Passage by slow diffusion occurs between the two compartments through the intermediary of a porous membrane (pore size: 12 μm).
(§4) The culture medium is renewed every three days.
Optionally 0.5 μg of HLE per ml of culture medium is added to the skin fragments.
5 μl of test compound previously dissolved at 0.2% by weight in ethanol are also added every two days.
The skins are maintained in survival for 10 days at 37° C.,
(§5) The elastin fibres are stained blue with (+) catechol and quantified morphometrically by computer-assisted image analysis. The mean percentage dermal surface area occupied by the elastin fibres was thus evaluated.

[2] = test system: surviving human skins irradiated by UVA; test: activity on surviving human skins irradiated by UVA (8 J/cm2), morphometry of elastin fibres and collagen (Example 6); conditions: UVA 8 J/cm2 + 5 μl compound at 0.2% in ethanol every two days, 7 days at 37° C.
Protocol: The activity of the compound of Example 2 was evaluated on irradiated surviving human skins irradiated by UVA (8 J/cm2).
(§6) The test is performed in the following manner:
as §3, with “four” for “three”
as §4
Every two days 5 μl of the test compound previously dissolved at 0.2% in ethanol are added to the skin fragments.
The skins are maintained in survival for 7 days at 37° C.
The skins are irradiated once only at 8 J/cm2 (Vilbert-Lourmat RMX-3W lamp).
as §5

[3] = test system: surviving human skins treated with human leukocyte elastase (HLE); test: ex vivo activity on fresh sections of surviving human skins treated with HLE, morphometry of elastin fibres (Example 4); conditions: HLE 10 μg/ml + 0.1% test compound, 2 hours at 20° C.
Protocol: as §1, §6
Fresh sections of human skins derived from 2 different donors are treated for 2 hours at 20° C. with 20 μl of buffer solution (pH 7.4) containing optionally 10 μg/ml of HLE and optionally 0.1% of the test compound, optionally previously dissolved in ethanol.
The elastin fibres are stained blue with (+) catechol and quantified morphometrically by computer-assisted image analysis. The percentage of mean dermal surface occupied by the elastin fibres is thus evaluated

[4] = biological target: T1, human leukocyte elastase (HLE) (Homo sapiens, UniProt P08246); test: anti-elastase activity in vitro against human leukocyte elastase (HLE), substrate Me-OSAAPV-p-NA, spectrophotometry; format: biochemical
T1 sequence (P08246 30-267): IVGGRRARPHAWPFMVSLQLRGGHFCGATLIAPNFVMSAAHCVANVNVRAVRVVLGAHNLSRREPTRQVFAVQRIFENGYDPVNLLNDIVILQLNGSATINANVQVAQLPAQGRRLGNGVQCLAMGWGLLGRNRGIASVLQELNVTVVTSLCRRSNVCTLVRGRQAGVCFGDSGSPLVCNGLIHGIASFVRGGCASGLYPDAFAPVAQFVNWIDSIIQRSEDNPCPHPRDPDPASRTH
Protocol: The anti-elastase activity of compounds according to the invention was determined in vitro against human leukocyte elastase (HLE)
as §2
A substrate Me-OSAAPV-p-NA (methyl-O-succinate alanine alanine proline valine-p-nitroanilide) to which is added the HLE (40 milliunits per ml) and 0.1% of the test compound is incubated at 37° C. for 60 minutes.
The % of inhibition of the elastase activity tested is then determined by spectrophotometry.
In the same manner the % of inhibition of the control elastase activity was determined for the compound A at different concentrations

Row | inhibition of the elastase activity (in words) ([4]; even at low concentration) | SMILES | % surface occupied by elastin fibres [1] | Morphometric analysis of elastin fibres (superficial dermis) ([2]; UVA alone 3.9%, untreated 6.75%) | Morphometric analysis of collagen (superficial dermis) ([2]; UVA alone 81%, untreated 87%) | % surface occupied by elastin fibres ([3]; Skin 1, HLE alone 4.85%, untreated 12.7%) | % surface occupied by elastin fibres ([3]; Skin 2, HLE alone 6.85%, untreated 15.25%) | % inhibition of elastase activity tested ([4]; compound concentration 0.1%, HLE 40 milliunits per ml, 37° C., 60 minutes)
1 | strong inhibition | CC(=O)N(c1cccc(C(F)(F)F)c1)C(C(=O)NCC(=O)O)C(C)C (stereo not shown) [Compound A, {2-[acetyl-(3-trifluoromethyl-phenyl)-amino]-3-methyl-butyrylamino}acetic acid] | 7.1% | 6.8% | 92% | 13.95% | 11.85% | –
2 | – | CCOC(=O)CNC(=O)C(C(C)C)N(Cc1ccccc1)C(=O)CP(=O)(OCC)OCC (stereo not shown) [Compound B, (2-{benzyl-[(diethoxy-phosphoryl)-acetyl]-amino}-3-methyl-butyrylamino) ethyl acetate] | – | – | – | – | – | 17%
